Data: US12692264B2, “Pyrimidine or pyridine derivative, preparation method therefor, and application thereof in pharmacy” (ABBISKO THERAPEUTICS CO., LTD., priority 2021, dated 2026)

Tests used:
Type in all cases: cell-based
A431 (EGFR-WT) = test: Cell proliferation study (CellTiter-Glo, 72 hrs), A431; conditions: Homo sapiens, A-431, A431 cells, CTG, * = average of multiple measurements
Protocol: (§1) (I) Reagents and Materials
(§2) • Fetal bovine serum FBS (GBICO, Cat #10099-141); • CellTiter-Glo® luminescent cell viability assay kit (Promega, Cat #G7572); • Black transparent flat-bottom 96-well plate (Corning®, Cat #3603). (II) Instruments • SpectraMax multi-label microplate reader MD, 2104-0010A; • Carbon dioxide incubator, Thermo Scientific 3100 series; • Biological safety cabinet, Thermo Scientific, 1300 series model A2; • Inverted microscope, Olympus, CKX41SF; • Siemens refrigerator KK25E76T1. (III) Cell Lines and Culture Conditions
(§3) (IV) Experimental Procedures 1. Cell Culture and Inoculation: • (1) Cells in the logarithmic growth phase were harvested and counted using a […]. The cell viability was determined by the trypan blue dye exclusion method to ensure cell viability above 90%. • (2) The cell concentration was adjusted to reach a desired final density; 90 μL of cell suspension was added to a 96-well plate. • (3) The cells were incubated overnight in the 96-well plate at 37° C., 5% CO2 and with 95% humidity. 2. T0 Benchmark Data: • (1) 10 μL of PBS was added to each well of the TO plate containing the cells. • (2) The CTG reagent was thawed and the cell plate was equilibrated to room temperature for 30 min. • (3) An equal volume of CTG solution was added to each well. • (4) The cells were lysed by shaking on an orbital shaker for 5 min. • (5) The cell plate was left to stand at room temperature for 20 min to stabilize the fluorescence signal. • (6) The fluorescence signal values of TO were read. 3. Dilution and Addition of Compounds • (1) According to the compound information table, a corresponding volume of DMSO was added to the corresponding compound powder to prepare a 10 mM stock solution. • (2) A 1000-fold, 3.16-fold-diluted compound solution was prepared. • (3) The 1000× diluted compound solution was diluted 100-fold with PBS to prepare a 10-fold compound solution with a maximum concentration of 10 μM, including 9 concentrations, with 3.16-fold dilution, and 10 μL of the medicament solution was added to each well of the 96-well plate to seed the cells. Triplicate wells were set for each compound concentration, with a final concentration of DMSO being 0.1%. • (4) The cells were placed in the 96-well plate containing the medicament at 37° C., 5% CO2 and with 95% humidity, and cultured for 72 hrs before CTG analysis. 4. Fluorescence Signal Reading • (1) The CTG reagent was thawed and the cell plate was equilibrated to room temperature for 30 min. • (2) An equal volume of CTG solution was added to each well. • (3) The cells were lysed by shaking on an orbital shaker for 5 min. • (4) The cell plate was left to stand at room temperature for 20 min to stabilize the fluorescence signal. • (5) The fluorescence values were read. 5. Data Processing
(§4) Data were analyzed using GraphPad Prism 7.0 software and fitted data were regressed using non-linear S-curves to obtain dose-response curves from which IC50 values (in nM) were calculated.

[1] = molecular target: Ba/F3 EGFR-V769_D770insASV (Homo sapiens, UniProt P00533, DUP767-769, cells depend on it); test: Cell proliferation study (CellTiter-Glo, 72 hrs), Ba/F3 EGFR-V769_D770insASV; conditions: CTG, * = average of multiple measurements, read-out: Ba/F3 EGFR-V769_D770insASV IC50
Protocol: as §1, §2, §3, §4

[2] = molecular target: Ba/F3 EGFR-D770-N771ins_SVD (Homo sapiens, UniProt P00533, DUP768-770, cells depend on it); test: Cell proliferation study (CellTiter-Glo, 72 hrs), Ba/F3 EGFR-D770-N771ins_SVD; conditions: CTG, * = average of multiple measurements, read-out: Ba/F3 EGFR-D770-N771ins_SVD IC50
Procedure, shortened: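 Cells were seeded overnight, then exposed for 72 hrs at 37 °C, 5% CO2 to 9 concentrations in 3.16-fold steps, 0.1% DMSO final, triplicate wells. Viability was read by CellTiter-Glo luminescence, with a T0 plate read at dosing. IC50 came from nonlinear sigmoidal dose-response fits.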

Chain of Ba/F3 EGFR-D770-N771ins_SVD (P00533 with tags, fused parts or gaps DUP768-770): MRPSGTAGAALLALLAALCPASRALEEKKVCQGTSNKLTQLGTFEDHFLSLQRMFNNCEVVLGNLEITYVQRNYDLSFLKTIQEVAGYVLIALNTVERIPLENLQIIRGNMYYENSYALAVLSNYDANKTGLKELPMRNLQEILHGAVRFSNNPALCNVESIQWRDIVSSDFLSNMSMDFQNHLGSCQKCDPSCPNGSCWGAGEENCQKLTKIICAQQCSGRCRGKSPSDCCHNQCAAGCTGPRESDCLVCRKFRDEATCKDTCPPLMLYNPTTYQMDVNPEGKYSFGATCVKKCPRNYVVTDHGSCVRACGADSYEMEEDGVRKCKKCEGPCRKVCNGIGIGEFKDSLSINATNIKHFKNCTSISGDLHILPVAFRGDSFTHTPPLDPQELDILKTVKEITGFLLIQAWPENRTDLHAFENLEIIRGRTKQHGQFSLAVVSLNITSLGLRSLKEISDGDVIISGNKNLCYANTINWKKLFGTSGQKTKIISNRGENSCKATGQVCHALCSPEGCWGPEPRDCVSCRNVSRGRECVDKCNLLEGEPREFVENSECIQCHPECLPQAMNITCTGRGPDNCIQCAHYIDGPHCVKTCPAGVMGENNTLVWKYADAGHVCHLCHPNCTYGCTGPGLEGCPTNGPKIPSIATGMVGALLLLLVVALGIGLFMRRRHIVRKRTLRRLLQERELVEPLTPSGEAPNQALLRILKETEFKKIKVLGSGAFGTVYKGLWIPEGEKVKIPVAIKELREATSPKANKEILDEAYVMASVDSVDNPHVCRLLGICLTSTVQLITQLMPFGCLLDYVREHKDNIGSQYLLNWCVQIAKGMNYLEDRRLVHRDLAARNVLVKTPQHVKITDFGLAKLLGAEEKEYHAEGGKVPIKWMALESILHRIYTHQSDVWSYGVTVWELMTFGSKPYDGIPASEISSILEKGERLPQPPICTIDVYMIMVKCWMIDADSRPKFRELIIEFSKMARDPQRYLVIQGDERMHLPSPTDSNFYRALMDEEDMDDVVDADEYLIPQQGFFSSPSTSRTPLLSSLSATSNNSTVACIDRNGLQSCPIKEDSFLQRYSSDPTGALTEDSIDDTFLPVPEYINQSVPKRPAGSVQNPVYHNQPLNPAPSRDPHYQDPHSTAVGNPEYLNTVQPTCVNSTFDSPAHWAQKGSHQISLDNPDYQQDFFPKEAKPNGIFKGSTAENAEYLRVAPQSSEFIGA
Chain of Ba/F3 EGFR-V769_D770insASV (P00533 with tags, fused parts or gaps DUP767-769): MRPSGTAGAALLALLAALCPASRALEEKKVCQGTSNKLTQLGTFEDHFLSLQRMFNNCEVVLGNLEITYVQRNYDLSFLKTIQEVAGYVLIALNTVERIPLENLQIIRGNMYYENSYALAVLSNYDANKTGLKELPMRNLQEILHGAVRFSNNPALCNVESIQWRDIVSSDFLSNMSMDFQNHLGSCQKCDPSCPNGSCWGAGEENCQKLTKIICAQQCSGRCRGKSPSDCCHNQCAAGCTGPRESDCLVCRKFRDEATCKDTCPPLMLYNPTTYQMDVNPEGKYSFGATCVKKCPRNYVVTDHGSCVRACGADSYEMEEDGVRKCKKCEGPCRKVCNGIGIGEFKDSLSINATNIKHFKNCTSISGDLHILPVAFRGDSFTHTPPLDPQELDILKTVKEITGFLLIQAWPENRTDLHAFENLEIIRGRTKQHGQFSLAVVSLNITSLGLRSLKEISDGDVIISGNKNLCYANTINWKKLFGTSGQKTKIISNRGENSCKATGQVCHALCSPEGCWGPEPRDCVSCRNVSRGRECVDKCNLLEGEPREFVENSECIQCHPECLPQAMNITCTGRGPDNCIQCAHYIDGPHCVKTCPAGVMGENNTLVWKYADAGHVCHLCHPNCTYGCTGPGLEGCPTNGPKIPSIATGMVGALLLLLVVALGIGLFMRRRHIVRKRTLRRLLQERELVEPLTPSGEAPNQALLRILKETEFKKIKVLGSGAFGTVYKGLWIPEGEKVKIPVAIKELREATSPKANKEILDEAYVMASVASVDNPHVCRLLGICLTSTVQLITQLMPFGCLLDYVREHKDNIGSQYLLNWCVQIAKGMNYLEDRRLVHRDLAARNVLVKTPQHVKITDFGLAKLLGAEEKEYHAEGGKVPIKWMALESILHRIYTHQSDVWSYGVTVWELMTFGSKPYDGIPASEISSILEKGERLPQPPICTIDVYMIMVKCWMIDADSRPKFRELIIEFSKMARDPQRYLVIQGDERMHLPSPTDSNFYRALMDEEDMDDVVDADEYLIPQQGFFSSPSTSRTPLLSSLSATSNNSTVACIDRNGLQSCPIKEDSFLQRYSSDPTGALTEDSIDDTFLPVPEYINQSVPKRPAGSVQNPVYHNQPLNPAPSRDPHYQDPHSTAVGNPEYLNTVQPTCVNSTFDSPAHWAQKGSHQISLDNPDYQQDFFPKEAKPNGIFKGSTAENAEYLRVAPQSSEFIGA

IC50 (A431 (EGFR-WT)) [nM]	GI50 [1] [nM]	GI50 [2] [nM]	Structure (SMILES)
252	58.2	20.2	C=CC(=O)Nc1cc(Nc2ncc(C(=O)OC(C)C)c(N3CC(C)(C)c4nc(C#CC)ccc43)n2)c(OC)cc1N1CCC[C@@H]1CN(C)C [Example 79, isopropyl (R)-2-((5-acrylamido-4-(2-((dimethyl-amino)methyl)pyrrolidin-1-yl)-2-meth-oxyphenyl)amino)-4-(3,3-dimethyl-5-(prop-1-yn-1-yl)-2,3-dihydro-1H-pyrrolo[3,2-b]pyridin-1-yl)pyrimidine-5-carboxylate]
20.9	9.2	15.4	C=CC(=O)Nc1cc(Nc2ncc(C(=O)OC(C)C)c(N3CC(C)(C)c4ncccc43)n2)c(OC)cc1N1C[C@@H](F)C[C@@H]1CN(C)C [Example 88, isopropyl 2-((5-acrylamido-4-((2R,4S)-2-((di-methylamino)methyl)-4-fluoro-pyrrolidin-1-yl)-2-methoxy-phenyl)amino)-4-(3,3-dimethyl-2,3-dihydro-1H-pyrrolo[3,2-b]pyridin-1-yl)pyrimidine-5-carboxylate]
561	13.8	23.6	C=CC(=O)Nc1cc(Nc2ncc(C(=O)OC(C)C)c(N3CC(C)(C)c4ccccc43)n2)c(OC)cc1N(C)CCN(C)C [Example 85, isopropyl 2-((5-acrylamido-4-((2-(dimethylami-no)ethyl)(methyl)amino)-2-methoxy-phenyl)amino)-4-(3,3-dimethylindolin-1-yl)pyrimidine-5-carboxylate]
962	27.9	33.2	C=CC(=O)Nc1cc(Nc2ncc(C(=O)OC(C)C)c(N3CC(C)(C)c4cc(F)c(F)cc43)n2)c(OC)cc1N1CCC[C@@H]1CN(C)C [Example 92, isopropyl (R)-2-((5-acrylamido-4-(2-((dimethyl-amino)methyl)pyrrolidin-1-yl)-2-meth-oxyphenyl)amino)-4-(5,6-difluoro-3,3-dimethylindolin-1-yl)pyrimidine-5-carboxylate]
778	28.8	34.6	C=CC(=O)Nc1cc(Nc2ncc(C(=O)OC(C)C)c(N3CC(C)(C)c4cc(F)c(F)cc43)n2)c(OC)cc1N1C[C@@H](F)C[C@@H]1CN(C)C [Example 93, isopropyl 2-((5-acrylamido-4-((2R,4S)-2-((di-methylamino)methyl)-4-fluoro-pyrrolidin-1-yl)-2-methoxy-phenyl)amino)-4-(5,6-difluoro-3,3-dimethylindolin-1-yl)pyrimidine-5-carboxylate]

Further lines, the compound ahead of its results:

Structure (SMILES)	IC50 (A431 (EGFR-WT)) [nM]	GI50 [1] [nM]	GI50 [2] [nM]
[2H]C([2H])([2H])N(CCN(C([2H])([2H])[2H])C([2H])([2H])[2H])c1cc(OC)c(Nc2ncc(C(=O)OC(C)C)c(N3CC(C)(C)c4nc(C)ccc43)n2)cc1NC(=O)C=C [Example 77, isopropyl 2-((5-acrylamido-4-((2-(bis(methyl-d3)amino)ethyl)(methyl-d3)amino)-2-methoxyphenyl)amino)-4-(3,3,5-tri-methyl-2,3-dihydro-1H-pyrrolo[3,2-b]pyridin-1-yl)pyrimidine-5-carboxylate]	97.2	32.2	11.7
C=CC(=O)Nc1cc(Nc2ncc(C(=O)OC(C)C)c(N3CC(C)(C)c4nc(C)ccc43)n2)c(OC)cc1N1C[C@H]2CN(C)C[C@H]2C1 [Example 58, isopropyl 2-((5-acrylamido-2-methoxy-4-((3aR,6aS)-5-methylhexahydro-pyrrolo[3,4-c]pyrrol-2(1H)-yl)phenyl)amino)-4-(3,3,5-trimethyl-2,3-dihydro-1H-pyrrolo[3,2-b]pyridin-1-yl)pyrimidine-5-carboxylate]	1280	38.1	28.7
C=CC(=O)Nc1cc(Nc2ncc(C(=O)OC(C)C)c(N3CC(C)(C)c4nc(C)ccc43)n2)c(OC)cc1N(C)C[C@H]1CCCN1C [Example 62, isopropyl (R)-2-((5-acrylamido-2-methoxy-4-(methyl((1-methylpyrrolidin-2-yl)methyl)amino)phenyl)amino)-4-(3,3,5-trimethyl-2,3-dihydro-1H-pyrrolo[3,2-b]pyridin-1-yl)pyrimidine-5-carboxylate]	120	16	12.3
C=CC(=O)Nc1cc(Nc2ncc(C(=O)OC(C)C)c(N3CC4(CC4)c4nc(C)ccc43)n2)c(OC)cc1N(C)C[C@@H]1CCCN1C [Example 44, isopropyl (S)-2-((5-acrylamido-2-methoxy-4-(methyl((1-methylpyrrolidin-2-yl)methyl)amino)phenyl)amino)-4-(5′-methylspiro(cyclopropane-1,3′-pyrrolo[3,2-b]pyridin)-1′(2′H)-yl)pyrimidine-5-carboxylate]	235	76.5	30.4
C=CC(=O)Nc1cc(Nc2ncc(C(=O)OC(C)C)c(N3CC4(CC4)c4nc(C)ccc43)n2)c(OC)cc1NCCN(C)C [Example 65, isopropyl 2-((5-acrylamido-4-((2-(dimethylami-no)ethyl)amino)-2-methoxy-phenyl)amino)-4-(5′-methylspiro(cyclo-propane-1,3′-pyrrolo[3,2-b]pyridin)-1′(2′H)-yl)pyrimidine-5-carboxylate]	282	34.4	39
C=CC(=O)Nc1cc(Nc2ncc(C(=O)OC(C)C)c(N3CC(C)(C)c4nc(Cl)ccc43)n2)c(OC)cc1N(C)CCN(C)C [Example 57, isopropyl 2-((5-acrylamido-4-((2-(dimethylami-no)ethyl)(methyl)amino)-2-methoxy-phenyl)amino)-4-(5-chloro-3,3-dimethyl-2,3-dihydro-1H-pyrrolo[3,2-b]pyridin-1-yl)pyrimidine-5-carboxylate]	988	62.4	23.3
[2H]C([2H])([2H])N(CCN(C)c1cc(OC)c(Nc2ncc(C(=O)OC(C)C)c(N3CC(C)(C)c4nc(C)ccc43)n2)cc1NC(=O)C=C)C([2H])([2H])[2H] [Example 42, isopropyl 2-((5-acrylamido-4-((2-(bis(methyl-d3)amino)ethyl)(methyl)amino)-2-methoxyphenyl)amino)-4-(3,3,5-trimethyl-2,3-dihydro-1H-pyrrolo[3,2-b]pyridin-1-yl)pyrimidine-5-carboxylate]	114	23.6	11.3
[2H]C1([2H])N(c2nc(Nc3cc(NC(=O)C=C)c(N4CCC[C@@H]4CN(C)C)cc3OC)ncc2C(=O)OC(C)C)c2ccc(C)nc2C1(C)C [Example 48, isopropyl (R)-2-((5-acrylamido-4-(2-((dimethyl-amino)methyl)pyrrolidin-1-yl)-2-meth-oxyphenyl)amino)-4-(3,3,5-trimethyl-2,3-dihydro-1H-pyrrolo[3,2-b]pyridin-1-yl-2,2-d2)pyrimidine-5-carboxylate]	4.4	37	11.1
C=CC(=O)Nc1cc(Nc2ncc(C(=O)OC(C)C)c(N3CC(C)(C)c4nc(C#CC)ccc43)n2)c(OC)cc1N1CC[C@@H](N(C)C)C1 [Example 74, isopropyl (R)-2-((5-acrylamido-4-(3-(dimethyl-amino)pyrrolidin-1-yl)-2-methoxy-phenyl)amino)-4-(3,3-dimethyl-5-(prop-1-yn-1-yl)-2,3-dihydro-1H-pyrrolo[3,2-b]pyridin-1-yl)pyrimidine-5-carboxylate]	99.3	43.6	15.5
